In patent US9150528B2, “Compound having detrusor muscle-contracting activity and urethral sphincter muscle-relaxing activity” (ONO PHARMACEUTICAL CO., LTD., priority 2009, dated 2015):

Assays:
[1] = tested on: underactive bladder models; assay: Residual urinary volumes and bladder capacities in underactive bladder models (cystometry); format: in vivo, rat; conditions: 0.01 mg/kg, oral, underactive bladder model rats, versus normal group
Method: The underactive bladder models were constructed in accordance with the following procedure. Female Wistar rats (8 to 9 weeks age) were anesthetized by intraperitoneal administration of Somnopentyl (40 mg/kg), followed by dorsal shaving, and fixed in abdominal positions. Each of the dorsal areas was disinfected with chlorhexidine gluconate (5% hibitane liquid). The waist area was median-incised to expose the spinal column. After excision of the fifth lumbar spinous process, a silicone rubber was inserted into the sixth lumbar direction from a hole bored by a mini drill. For the purpose of avoiding infections, after completion of the surgical operation, benzylpenicillin potassium (25000 U/0.25 mL/body) was added dropwise to the incised area. The muscle and skin of the incised area were sutured with silk threads, and iodine tincture was applied to the sutured area. After the operation, maintenance of voiding was carried out by manual compressions three times daily. For the purpose of avoiding infections, potassium penicillin G (1.25 units/body) was administered subcutaneously. More than 5 days prior to cystometric evaluation, a catheter for cystometrogram was indwelled in the bladder. Anesthesia with sodium pentobarbital (40 mg/kg by intraperitoneal administration) and incision along the midline of the abdomen were carried out, followed by incision of the apex of the bladder. A catheter for cystometrogram filled with physiological saline was inserted into the bladder from a hole of the apical area, and fixed by ligation using silk suture threads. […]
The rats were anesthetized with ether and housed in a Bollmann cage 2 weeks after the construction of the models. To the front end of each of the bladder catheters, a pressure transducer via a three-way cock was connected, and the intravesical pressure was recorded using a strain pressure amplifier•recorder. […]
[…] After 1 hr, physiological saline was perfused into the bladder at a flow rate of 2 mL/h and voiding parameters (bladder capacity and residual urinary volume) were measured. […] Voiding parameters were calculated for each cystometry. […]

[2] = tested on: normal rats; assay: Blood pressures and heart rates in normal rats; format: in vivo, rat; conditions: oral; for effect on the blood pressure / increase in heart rate: 0.3 mg/kg
Method: The blood pressures and heart rates of female Wistar rats were measured in accordance with the following procedure. On the day of measurement, indwelling of catheters for blood pressure•heart rate measurement was carried out under anesthesia with ether. The back of the neck of each rat was incised; a feeding catheter (Atom Medical Corporation) filled with heparinized physiological saline was introduced from the back of the neck; the catheter was inserted into the common carotid artery; and the surgical incision was closed. The measurements were carried out in a Bollmann cage under the conscious state, and the evaluations were carried out after confirming that the individual parameters were stabilized. After confirming the stabilization of blood pressure and heart rate, the test compound which was prepared using injectable water containing equimolar NaOH was orally administered at a dose of 5 mL/kg.
The catheter drawn from the back of the neck was connected to a pressure transducer (DX-200, NIHON KOHDEN CORP.), and the blood pressures and heart rates were measured using an amplifier for pressure measurement (Gould Instrument). The blood pressures and heart rates were recorded using a recorder (LINEARCORDERWR3320, GRAPHTEC). For each individual, rates of increase and decrease in average blood pressure and heart rate before administration and 30, 60, 120, and 180 min after administration were calculated with respect to the values of each individual before administration. Changes in blood pressure and heart rate before and after administration of the test compound were evaluated.

[3] = tested on: human lyophilized liver cells; assay: Stability evaluation in lyophilized liver cells; format: in vitro ADME; conditions: 37° C.
Method: KHEM5100 medium which includes human lyophilized liver cells after dissolving (final concentration of living cells: 1×10^6 cells/mL) and the test compound (acetonitrile or methanol solution, final concentration≦1%) was incubated at 37° C. Immediately after reaction and with the passage of reaction time, some portions were sampled from the medium. The concentrations of the test compound in the samples were measured by LC/MS/MS. The residual rate of the test compound relative to immediately after reaction was calculated by the following equation: Residual rate=the concentration of the test compound in the sample after reaction/the concentration of the test compound in the sample immediately after reaction×100(%) The residual rates were plotted on a single logarithmic scale against reaction time to calculate loss rate constants. The test was repeated (n=2), and the obtained values were averaged.

[4] = tested on: spontaneously hypertensive rats; assay: Blood pressure and heart rate measurement in hypertensive rats; format: in vivo, rat; conditions: continuous intravenous
Method: The blood pressures and heart rates of male spontaneously hypertensive rats were measured. On the day of measurement, indwelling of catheters for blood pressure•heart rate measurement and subject substance administration was carried out under anesthesia with ether. The back of the neck of each rat was incised, a feeding catheter (Atom Medical Corporation) filled with heparinized physiological saline was introduced from the back of the neck; the catheter was inserted into the common carotid artery and internal jugular vein; and the surgical incision was closed. The measurements were conducted in a Bollmann cage under the conscious state and evaluations were carried out after confirming that the individual parameters were stabilized. After confirming the stabilization of blood pressure and heart rate, the test compound was continuously administered intravenously at a flow rate of 5 mL/kg/h for 30 min.
The catheter drawn from the back of the neck was connected to a pressure transducer (DX-200, NIHON KOHDEN CORP.), and the blood pressures and heart rates were measured using a blood pressure amplifier (Gould instrument). The blood pressures and heart rates were recorded on recording paper using a recorder (LINEARCORDER WR3320, GRAPHTEC). The blood pressures and heart rates were converted into values on the recording paper before administration and 2.5, 5, 10, 15, 30, 45 and 60 min after administration. For each individual, rates of increase and decrease in the parameters were evaluated relative to the value before administration (value at 0 min).

[5] = tested on: cynomolgus monkeys; assay: Effects on cardiac function in anesthetized cynomolgus monkeys; format: in vivo, cynomolgus monkey; conditions: continuous intravenous 30 min
Method: Cynomolgus monkeys were anesthetized with pentobarbital (at an initial dose of 20-30 mg/kg by intravenous administration; at a dose of 4-5 mg/kg/hr by intravenous continuous administration). A tracheal tube was inserted and experiments were carried out under artificial respiration (fresh air+pure oxygen, ventilatory volume: 10-15 mL/kg, ventilation frequency: 10-15 times/min). In the right lying position, the left thorax was opened between the fourth and fifth intercostal spaces. The […] (the origin of the left anterior descending artery or circumflex branch) and the origin of the ascending main artery were peeled off and transducers for blood flow measurement were located there. The blood flow rates were measured using an electronic blood flowmeter or an ultrasonic blood flowmeter. The blood pressures were measured using a pressure transducer in a state where a catheter was inserted into the right femoral artery. The left ventricular internal pressure was measured in a state where a catheter was inserted from the left carotid artery into the left ventricle. The electrocardiogram was measured using needle electrodes installed in the right armpit and the left thorax. After catheters for administration were inserted into the right and left cephalic veins and femoral veins, the test compound, pentobarbital (under anesthesia) or an aqueous solution (SOLITA T3 containing 1.2% NaHCO3) were administered therethrough. The test compound was continuously administered intravenously 30 min using a continuous infusion system. The blood pressure, left ventricular internal pressure, blood flow rate through the coronary artery and electrocardiogram data were simultaneously inputted to a PowerLab system (LabChart6, AD instruments) to measure/calculate average blood pressure, heart rate, average blood flow rate through the coronary artery, beat volume, stroke volume (beat volume/heart rate), maximum first deviation of the left ventricular internal pressure, total peripheral blood vessel resistance (average blood pressure/beat volume), cardiac performance (average blood pressure x beat volume) and double product (systolic arterial pressure x heart rate), which is indicative of myocardial oxygen consumption.
The averages of all evaluation parameters for 1 min were obtained before administration, immediately after administration, and 10 min, 20 min and 30 min after administration, and changes of the averages relative to the value measured before administration which is defined as 100% were calculated.

[6] = tested on: urinary excretion dysfunction models; assay: Urinary excretion dysfunction models, maximal urinary flow rate; format: in vivo; conditions: 60 ng/kg/h continuous intravenous, cynomolgus monkey urinary excretion dysfunction model
Description: Urinary excretion dysfunction models were constructed in accordance with the following procedure. After anesthesia of cynomolgus monkeys, the region from the suprapubic area to the abdominal area was shaved, followed by fixing in a dorsal position. The shaved region was disinfected and the four legs were fixed. Using an electrosurgical knife, the skin region from the suprapubic area to the umbilical area and the peritoneal membrane were sequentially incised, followed by damage to the pelvic nerve and removal of the uterus. After the surgical operation, viccillin-containing physiological saline was added dropwise to the incised area. The peritoneal membrane and skin of the incised area were sutured with silk threads and disinfected. Viccillin was administered for 7 consecutive days after surgery. Meloxicam was administered once daily for 7 consecutive days to manage pain in the perioperative period.
The cynomolgus monkeys were seated on monkey chairs, followed by retention of the hands and legs with strings. Injectable water was administered orally, and physiological saline and the test compound (60 ng/kg/h) were continuously administered intravenously to allow urination freely. The maximal urinary flow rate was measured using a urine weighing sensor.

[7] = tested on: male rats; assay: Digestive symptoms after repeated oral administration; format: in vivo, rat; conditions: 0.1 mg/kg oral, repeated for 4 days
Method: Using male rats, aged 6 weeks, general states of the rats were observed after repeating oral administration of the test compound at a dose of 0.1 mg/kg for 4 days. To a control, injectable water which is a medium was administered.

[8] = Parallel artificial membrane permeability assay (PAMPA); format: in vitro ADME; conditions: sum of pH 5.0, 6.2 and 7.4, 25° C., read-out: membrane permeability coefficients (PAMPA(SUM))
Method: The permeability of the drugs through artificial membranes was measured by parallel artificial membrane permeability assay (PAMPA) under the following conditions. For the measurements, a PAMPA system (pION) was used. The membrane permeability was evaluated by measuring membrane permeability coefficients at three pH values and summing the values (PAMPA(SUM)(cm/sec)).
Lipid membrane: GIT-0 (pION)
Incubation temperature: 25° C.
Donor: 5% DMSO-containing buffer
Compound concentration: 50 μmol/L

C=C(C)CC[C@](C)(O)C/C=C/[C@H]1CCC(=O)[C@@H]1CCSc1nc(C(=O)O)cs1 [Comparative compound A, 2-[(2-{(1R,2R)-2-[(1E,4S)-4-hydroxy-4,7-dimethyl-1,7-octadien-1-yl]-5-oxocyclopentyl}ethyl)thio]-1,3-thiazole-4-carboxylic acid]
bladder capacity [1]: significant decrease
effect on the blood pressure [2]: tendency to increase
increase in blood pressure ([2]; 1 mg/kg): about 10%

CCCCC[C@](C)(O)C/C=C/[C@H]1CCC(=O)[C@@H]1CCSc1nc(C(=O)O)cs1 [Comparative compound B, 2-[(2-{(1R,2R)-2-[(1E,4S)-4-hydroxy-4-methyl-1-nonen-1-yl]-5-oxocyclopentyl}ethyl)thio]-1,3-thiazole-4-carboxylic acid, reference compound]
Residual rate ([3]; Reaction time 0 h): 100%
Residual rate ([3]; Reaction time 0.5 h): 91.5%
Residual rate ([3]; Reaction time 1 h): 78.1%
Residual rate ([3]; Reaction time 1 h, listed as comparative compound B): ≤ 80%
Residual rate ([3]; Reaction time 2 h): 62.3%
Residual rate ([3]; Reaction time 2 h, listed as comparative compound B): about 60%
reduction of blood pressure ([4]; 100 ng/kg/min): about 10%
reduction of blood pressure ([4]; 300 ng/kg/min): about 25%
effect on the blood pressure [2]: tendency to decrease
increase in heart rate [2]: about 20%
effect on the cardiac functions [5]: inhibitory effect
improvement in maximal urinary flow rate over the vehicle group [6]: 27%

C[C@@](O)(C/C=C/[C@H]1CCC(=O)[C@@H]1CCSc1nc(C(=O)O)cs1)CCCC(F)(F)F [Comparative compound C, 2-[(2-{(1R,5R)-2-oxo-5-[(1E,4S)-8,8,8-trifluoro-4-hydroxy-4-methyl-1-octenyl]cyclopentyl}ethyl)thio]-1,3-thiazole-4-carboxylic acid]
digestive symptoms such as soft feces [7]: soft feces were observed
effect on the blood pressure [2]: tendency to decrease
increase in heart rate [2]: about 20%

C[C@@](O)(C/C=C/[C@H]1COC(=O)N1CCSc1nc(C(=O)O)cs1)CCCC(F)(F)F [Comparative compound E, 2-[(2-{(4S)-2-oxo-4-[(1E,4S)-8,8,8-trifluoro-4-hydroxy-4-methyl-1-octenyl]-1,3-oxazolidin-3-yl}ethyl)sulfanyl]-1,3-thiazole-4-carboxylic acid, reference compound]
Papp at 4 hr, 50 μmol/L [8]: 0.6 ×10⁻⁶ cm/s
